What is called IC50 is the concentration at which inhibition is half-maximal. Lower therefore signals inhibition by little substance.

Consider 3 molecules from patent publication US5354754A, “Pyrrolopyrimidines, their production and use” (Takeda Chemical Industries, Ltd., priority 1989, dated 1994).

SMILES strings stand for the structures. Values after ≈ are worked out from the molar mass of the structure shown.

The subject of experiment [1] is dihydrofolic acid reductase. The settings on record: in words, prior art; cited from earlier work.
Experiment [2] deals with Human epidermoid carcinoma KB cells. The experiment is described as follows: cell growth inhibiting effect on KB cells (MTT, 72 hours). Type of experiment: cell-based. The note with it: 37° C., 5% CO2, MTT, absorbance at 590 nm. The procedure:
The cell growth inhibiting effect (IC50) on KB cells of the compounds obtained in the following Examples was measured by the following method. (Hereinafter, % means weight %.)
Human epidermoid carcinoma KB cells (1×10^4 /ml) prepared by a conventional method were inoculated in a volume of 0.1 ml for each hole of the 96-microwell plate, and cultured at 37° C. for 24 hours without agitation in an atmosphere of 5% CO2. A 10% solution of one compound obtained by Example in 10% MEM (minimal essential medium, Nissui Pharmaceutical Co. Ltd, Japan) was added thereto, and the cells were cultured again at 37° C. for 72 hours without agitation in an atmosphere of 5% CO2. The culture was removed by using a micropipet, and another 10% solution 0.1 ml of MTT [3-(4,5-dimethylthiazol-2-yl)-2,5-diphenyltetrazolium bromide] (Dojin Laboratories, Japan) in 10% MEM (1.0 mg/ml) was added thereto. The cells were cultured at 37° C. for 4 hours. A 10% SDS [sodium dodecylsulfate](Wako Pure Chimicals, Japan) solution (0.1 ml) was further added, and the cells were cultured at 37° C. for 24 hours. The absorbance at 590 nm was measured, and the concentration of a drug needed for decreasing the number of cells in non-treated control group to a degree of 50% was determined as IC50 value of the compound.

The subject of experiment [3] is glycinamide ribonucleotide transformylase. The note with it: in words, Journal of Medicinal Chemistry, 28, 914(1985); cited from earlier work.

Take `CN(Cc1cnc2nc(N)nc(N)c2n1)c1ccc(C(=O)N[C@@H](CCC(=O)O)C(=O)O)cc1` [methotrexate]: the “inhibition of dihydrofolic acid reductase” value in experiment [1] was “inhibit the reduction from dihydrofolic acid to tetrahydrofolic acid by coupling strongly with the dominant enzyme in the second step”. As for `Nc1nc(N)c2c(CCCc3ccc(C(=O)N[C@@H](CCC(=O)O)C(=O)O)s3)c[nH]c2n1` [Example 3, N-[5-(3-(2,4-diamino-7H-pyrrolo[2,3-d]pyrimidin-5-yl)propyl)-2-thenoyl]-L-glutamic acid], the IC50 in experiment [2] turned out to be 0.43 ng/mL (≈ 0.963 nM). For the molecule `Nc1nc2c(c(=O)[nH]1)C[C@@H](CCc1ccc(C(=O)N[C@@H](CCC(=O)O)C(=O)O)cc1)CN2` [DDATHF], the “inhibition of dihydrofolic acid reductase” value in experiment [1] was “does not inhibit dihydrofolic acid reductase”. Also, the “inhibition of glycinamide ribonucleotide transformylase” value in experiment [3] is listed as “main mechanism of which consists in inhibition of glycinamide ribonucleotide transformylase”.
